# In patent US20220282271A1, “HERBICIDE RESISTANT PLANTS AND METHODS OF MAKING AND USING” (OFFICE OF INNOVATION ADVANCEMENT AND COMMERCIALIZATION, priority 2019, published 2022):
# Assays:
# Amaranthus hybridus = test: Weed control screen: smooth pigweed; format: in vivo; settings: 1.0 lb ai/a, applied approximately 3 weeks after emergence, relative to non-treated
# Method: (§1) Herbicides were applied at a spray volume of 280 L/ha with no adjuvant added to any herbicide mixture. Weed control was rated on a 0 to 100 percent phytoxicity scale with 0 being no plant injury/phytotoxicity and 100 being complete plant dessication. Twenty-one weeds were evaluated for response to herbicides (Table 3). The weeds selected were a mixture of weeds common in agronomic and horticultural crops. Herbicide was applied to all species approximately 3 weeks after emergence. Plant phytotoxicity rated as percent control relative to the non-treated.
# [1] = biological target: T1, recombinant wild-type E. indica PPO1 (Eleusine indica, UniProt A0A6G5XNV7); test: In vitro PPO enzyme activity inhibition, wild-type PPO1; format: biochemical
# T1 sequence (A0A6G5XNV7 1-529): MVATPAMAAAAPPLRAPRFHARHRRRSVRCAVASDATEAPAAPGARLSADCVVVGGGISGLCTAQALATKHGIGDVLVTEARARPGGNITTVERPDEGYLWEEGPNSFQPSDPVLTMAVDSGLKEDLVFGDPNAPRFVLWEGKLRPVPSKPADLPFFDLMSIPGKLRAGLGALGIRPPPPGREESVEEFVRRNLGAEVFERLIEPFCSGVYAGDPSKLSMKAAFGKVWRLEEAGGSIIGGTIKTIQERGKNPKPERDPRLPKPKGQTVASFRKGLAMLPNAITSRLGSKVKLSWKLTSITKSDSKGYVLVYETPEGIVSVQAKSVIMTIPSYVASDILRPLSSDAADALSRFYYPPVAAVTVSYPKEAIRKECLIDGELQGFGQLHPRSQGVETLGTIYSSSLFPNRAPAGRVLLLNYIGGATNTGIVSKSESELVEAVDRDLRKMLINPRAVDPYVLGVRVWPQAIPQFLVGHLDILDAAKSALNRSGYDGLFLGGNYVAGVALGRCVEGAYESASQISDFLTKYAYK
# Description: Effects of A212T substitution were studied using the E. indica backbone. The wild-type E. indica PPO1 and the E. indica PPO1 A212T variants were synthesized de novo and subcloned into pRSetB plasmid (Invitrogen, Carlsbad, Calif.). The complete description of expression and purification of E. indica PPO1 and E. indica PPO1 A212T variant proteins were referenced to the method described for PPO2 by Rangani et al. (2019, Frontiers in Plant Sci., 10:568). […] Oxadiazon, sulfentrazone, saflufenacil and lactofen are from the class of oxadiazole, triazolinone, pyrimidinedione, and diphenyl ether, respectively. Flumioxazin and trifludimoxazin are from the same chemical family, N-phenylphthalimide. […] The assay was replicated twice.
# Sesbania exaltata = test: Weed control screen: hemp sesbania; format: in vivo; settings: 1.0 lb ai/a, applied approximately 3 weeks after emergence, relative to non-treated
# Method: as §1
# Cyperus iria = test: Weed control screen: rice flatsedge; format: in vivo; settings: 1.0 lb ai/a, applied approximately 3 weeks after emergence, relative to non-treated
# Method: as §1
# Kyllinga squamulata = test: Weed control screen: cock's comb kyllinga; format: in vivo; settings: 1.0 lb ai/a, applied approximately 3 weeks after emergence, relative to non-treated
# Method: as §1
# Ipomoea coccinea = test: Weed control screen: red morningglory; format: in vivo; settings: 1.0 lb ai/a, applied approximately 3 weeks after emergence, relative to non-treated
# Method: as §1
# [2] = highest herbicide concentration 10^−5 M
compound,measurement,setting,value
"CC(C)Oc1cc(-n2nc(C(C)(C)C)oc2=O)c(Cl)cc1Cl [Oxadiazon, oxadiazon]",Percent control (0 to 100),Amaranthus hybridus,100%
same,IC50,[1],24.7 nM
same,Wild-type E. indica PPO1 % inhibition,[1]; [2],>90%
same,inhibition at 10 µM,[1]; [2],> 90%
same,Percent control (0 to 100),Sesbania exaltata,100%
same,Percent control (0 to 100),Cyperus iria,60%
same,Percent control (0 to 100),Kyllinga squamulata,75%
same,Percent control (0 to 100),Ipomoea coccinea,100%
